According to the supplement of paper PMC6045584:
± gives the standard deviation of the averaged measurements.

Tests used:
[1] = compound: COc1cc2nccc(Oc3ccc(NC(=O)C4(C(=O)Nc5ccc(F)cc5)CC4)cc3)c2cc1OC [CABOZANTINIB]; experiment: surviving fraction relative to DMSO-only wells; higher = less growth inhibition; conditions: exposure time: 5 days
Summary of the method: (§1)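 Five days of continuous inhibitor exposure, at 0.5, 1, 5, 10, 50, 100, 500 and 1000 nM, followed a 24-hour period after log-phase tumour cell lines were seeded at 250–500 cells per well in 384-well plates. Surviving fraction was derived from CellTiter-Glo luminescence relative to the median of DMSO-only wells. Plates were read after 10 minutes at room temperature, and lines screened three times were kept only if replicate Pearson r >0.7 and median Z' >0.3.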

[2] = compound: O=C(CCCCCCC(=O)Nc1ccccc1)NO [VORINOSTAT]; experiment: as above; conditions: exposure time: 5 days
Summary of the method: as §1

| Test System | surviving fraction ([1]; 0.5 nM) | surviving fraction ([1]; 1 nM) | surviving fraction ([1]; 5 nM) | surviving fraction ([1]; 10 nM) | surviving fraction ([1]; 50 nM) | surviving fraction ([1]; 100 nM) | surviving fraction ([1]; 500 nM) | surviving fraction ([1]; 1000 nM) | surviving fraction ([2]; 0.5 nM) | surviving fraction ([2]; 1 nM) | surviving fraction ([2]; 5 nM) | surviving fraction ([2]; 10 nM) | surviving fraction ([2]; 50 nM) | surviving fraction ([2]; 100 nM) | surviving fraction ([2]; 500 nM) | surviving fraction ([2]; 1000 nM) |
| --- | --- | --- | --- | --- | --- | --- | --- | --- | --- | --- | --- | --- | --- | --- | --- | --- |
| CCK81 LARGE INTESTINE | 0.691 ± 0.07 | 0.837 ± 0.062 | 0.725 ± 0.12 | 0.764 ± 0.019 | 0.704 ± 0.073 | 0.686 ± 0.075 | 0.718 ± 0.12 | 0.743 ± 0.08 | – | – | – | – | – | – | – | – |
| G292 BONE | 0.911 ± 0.047 | 0.977 ± 0.012 | 1.02 ± 0.078 | 1.02 ± 0.046 | 0.925 ± 0.04 | 0.876 ± 0.021 | 0.76 ± 0.035 | 0.722 ± 0.024 | 1.02 ± 0.027 | 0.995 ± 0.029 | 0.982 ± 0.046 | 1.04 ± 0.047 | 0.979 ± 0.04 | 0.947 ± 0.036 | 0.691 ± 0.032 | 0.511 ± 0.03 |
| HCC38 BREAST | 1.07 ± 0.1 | 1.14 ± 0.12 | 1.38 ± 0.22 | 1.34 ± 0.23 | 1.13 ± 0.074 | 1.24 ± 0.067 | 1.22 ± 0.1 | 1.34 ± 0.15 | 1.25 ± 0.035 | 1.25 ± 0.028 | 1.27 ± 0.15 | 1.24 ± 0.097 | 1.42 ± 0.26 | 1.23 ± 0.21 | 1.06 ± 0.066 | 0.633 ± 0.11 |
| HCC70 BREAST | 0.985 ± 0.1 | 1.03 ± 0.048 | 1.07 ± 0.11 | 1.09 ± 0.065 | 1.04 ± 0.14 | 1.12 ± 0.045 | 1.09 ± 0.091 | 0.99 ± 0.051 | 0.965 ± 0.061 | 0.963 ± 0.042 | 1 ± 0.054 | 1.02 ± 0.11 | 1.06 ± 0.094 | 0.973 ± 0.073 | 0.766 ± 0.037 | 0.496 ± 0.049 |
| HMLE3 BREAST | 0.925 ± 0.14 | 0.91 ± 0.032 | 0.98 ± 0.023 | 0.942 ± 0.08 | 0.992 ± 0.07 | 0.91 ± 0.064 | 0.72 ± 0.049 | 0.656 ± 0.0044 | 0.914 ± 0.067 | 0.95 ± 0.038 | 1.11 ± 0.03 | 1.01 ± 0.095 | 1.04 ± 0.042 | 1.09 ± 0.049 | 0.982 ± 0.066 | 0.702 ± 0.073 |
| HMT3552 BREAST | 1.12 ± 0.044 | 1.04 ± 0.012 | 1.02 ± 0.021 | 1.03 ± 0.051 | 1.21 ± 0.067 | 1.09 ± 0.085 | 1.01 ± 0.061 | 0.988 ± 0.057 | 0.95 | 1.12 | 1.03 | 1.01 | 1.09 | 1.14 | 0.656 | 0.329 |
| HS578T BREAST | 0.931 ± 0.14 | 0.97 ± 0.1 | 0.786 ± 0.087 | 1.12 ± 0.087 | 1.04 ± 0.08 | 1.2 ± 0.049 | 1.06 ± 0.075 | 0.998 ± 0.099 | 0.951 ± 0.12 | 0.888 ± 0.12 | 0.922 ± 0.2 | 0.989 ± 0.11 | 0.945 ± 0.2 | 0.821 ± 0.068 | 0.569 ± 0.08 | 0.347 ± 0.034 |
